From US9345682B2, “Inhibition of STAT3 signal transduction for human cancer therapy” (University of South Florida, priority 1999, dated 2016)

Columns and labels:
peritoneal macrophages = experiment: Cytostatic activity of peritoneal macrophages against J558 myeloma cells; set-up: species or system mice; settings: daily i.p. in vivo treatment
Description: Peritoneal macrophage preparation and cytostatic test. […] The peritoneal macrophage population is enriched by adhesion on plastic plates followed by washing and aspiration of non-adherent cells. The percentage of macrophages among adherent cells is estimated by morphological criteria using Giemsa staining (>95%). Antitumor cytostatic activity of macrophages is determined by inhibition of DNA synthesis of target tumor cells (J558 myeloma cells). Briefly, macrophage-sensitive J558 cells (2×10^4/well) are co-cultured for 48 hours with and without macrophages (2×10^5/well) prepared from individual mice. To estimate DNA synthesis, the cells are pulsed with ^3H-thymidine (^3H-TdR) ([…]) during the last 6 hours of incubation. ^3H-TdR incorporation is determined using a liquid scintillation b-counter (Pharmacia Wallac, Finland). Results are expressed as percentage of inhibition of ^3H-TdR incorporation by J558 cells incubated with macrophages compared to ^3H-TdR incorporation by J558 cells incubated in medium alone.

STAT3 = experiment: EMSA (SIE probe) of constitutive STAT3 DNA-binding in U266 myeloma cells; assay type: cell-based, human; settings: 50 mM AG490, within 16 to 24 hours
Description: U266 and RPMI 8226 cell lines are originally obtained from ATCC and maintained in RPMI 1640 medium supplemented with 10% fetal calf serum (FCS). For detection of STATs in primary bone marrow (BM) cells, BM aspirates are diluted 1:2 in phosphate-buffered saline (PBS) and mononuclear cells are separated by the standard Ficoll-Hypaque (Pharmacia LKB Biotechnology) sedimentation procedure. Mononuclear cells are washed twice with PBS, and nuclear extracts are prepared as described below. For inhibitor studies, a minimum of 10^7 U266 cells are treated with 1 mg/ml Sant7 or with […] AG490 (Meydan, et al., 1996, Nature 379:645-648). NIH 3T3 cells overexpressing the human EGF receptor have been described (Garcia, et al., 1997, Immunity 5:449-460).
Nuclear extracts are prepared as previously described. Briefly, nuclei are isolated and extracted in hypertonic buffer (20 mM HEPES, pH 7.9, 420 mM NaCl, 1 mM EDTA, 1 mM EGTA, 20% glycerol, 20 mM NaF, 1 mM Na3VO4, 1 mM Na2P4O7, 1 mM DTT, 0.5 mM PMSF, 0.1 mM aprotinin, 1 mM leupeptin, and 1 mM antipain). […] Protein-DNA complexes are resolved on 5% non-denaturing polyacrylamide gels and analyzed by autoradiography. […]

[1] = system: myeloma cells with activated STAT3; experiment: In vitro apoptosis assay of murine myeloma cells; assay type: cell-based
Description: In vitro apoptosis assay. After a 24 hours incubation with LIMEM medium containing […] AG-490, cells are stained with Annexin V-PE and 7-Amino-actinomycin D (PharMingen, San Diego, Calif.). Dual-color fluorescence is measured on a FACScan flow cytometer and analyzed using CellQuest software (Becton Dickinson, Mountain View, Calif.).

Bcl-2 = Bcl-2 expression (RT-PCR, Western blot) in U266 cells; assay type: cell-based, human; settings: AG490
Description: Cells are lysed in a buffer composed of 50 mM Tris-Cl, pH 7.4, 5 mM EDTA, 150 mM NaCl, and 0.5% Triton-X 100 containing 1 mg/ml leupeptin and aprotinin, and 1 mM PMSF. Protein content of the cell lysates is quantified by the Bradford assay (Bio-Rad), and […] total protein is dissolved in Laemmli SDS-PAGE sample buffer prior to separation by 10% SDS-PAGE. Proteins are transferred to PVDF membrane and Western blot analysis is performed by standard techniques with ECL detection (Amersham). The Bcl-xL antibody, clone 124 (Dako), is used at a 1:2000 dilution. The Bcl-xL, antibody, clone S-18 (Santa Cruz Biotechnology), is used at a 1:500 dilution. Blots are quantified by densitometry and expression levels were normalized to b-actin (Sigma).
Total RNA is isolated by lysis in guanidine isothiocyanate followed by centrifugation through a cesium chloride gradient. cDNA is prepared from 200 ng of total RNA in a […] reaction with AMV-RT (Boehringer-Mannheim). […] Tem ml of PCR products are electrophoresed on a 5% acrylamide gel and quantified by phosphorimaging using ImageQuant software (Molecular Dynamics).

## N#C/C(=C\c1ccc(O)c(O)c1)C(=O)NCc1ccccc1 [AG490]
Peritoneal macrophages
  IL-12-induced cytostatic activity of peritoneal macrophages against target tumor cells: does not influence
STAT3
  constitutive STAT3 DNA-binding activity: complete abrogation
[1]
  apoptosis of myeloma cells: efficient apoptosis
Bcl-2
  expression of Bcl-2: no effect
